Data taken from ChEMBL document CHEMBL2151015, “Discovery of a potent, selective, and orally bioavailable acidic 11β-hydroxysteroid dehydrogenase type 1 (11β-HSD1) inhibitor: discovery of 2-[(3S)-1-[5-(cyclohexylcarbamoyl)-6-propylsulfanylpyridin-2-yl]-3-piperidyl]acetic acid (AZD4017)” (J Med Chem, 2012).
Converted amounts (≈) assume the structure as drawn.

Key:
[1] = Octanol-buffer partition coefficient, log D of the compound after 30 mins by shake flask method at pH 7.4
[2] = in vivo; conditions: rat
[3] = Fraction unbound in rat plasma after 18 to 19 hrs by equilibrium dialysis; type: ADME, cell-free
[4] = Intrinsic clearance in rat hepatocytes assessed per 10^6 cells
[5] = Oral bioavailability in rat; type: ADME, organism-based; conditions: in vivo
[6] = Cmax in po dosed Sprague-Dawley rat pre-dosed with ABT administered 2 hrs […] measured up to 24 hrs; type: ADME, organism-based; design: route oral; conditions: in vivo
[7] = Aqueous solubility of the compound after 24 hrs by LC-UV analysis at pH 7.4; type: physicochemical; conditions: aqueous medium
[8] = Cmax in po dosed Sprague-Dawley rat measured up to 24 hrs; type: ADME, organism-based; design: route oral; conditions: in vivo
[9] = AUC (0 to t) in po dosed Sprague-Dawley rat pre-dosed with ABT administered 2 hrs […] measured up to 24 hrs; type: ADME, organism-based; design: time < 24 hr, route oral; conditions: plasma
[10] = AUC (0 to t) in po dosed Sprague-Dawley rat measured up to 24 hrs; type: ADME, organism-based; design: time < 24 hr, route oral; conditions: plasma
[11] = Apparent permeability across human Caco2 cells; type: ADME, cell-based; conditions: Caco-2
[12] = biological target: 11-beta-hydroxysteroid dehydrogenase 1 (Homo sapiens, UniProt P28845); assay: biochemical
11-beta-hydroxysteroid dehydrogenase 1, sequence (P28845 whole entry): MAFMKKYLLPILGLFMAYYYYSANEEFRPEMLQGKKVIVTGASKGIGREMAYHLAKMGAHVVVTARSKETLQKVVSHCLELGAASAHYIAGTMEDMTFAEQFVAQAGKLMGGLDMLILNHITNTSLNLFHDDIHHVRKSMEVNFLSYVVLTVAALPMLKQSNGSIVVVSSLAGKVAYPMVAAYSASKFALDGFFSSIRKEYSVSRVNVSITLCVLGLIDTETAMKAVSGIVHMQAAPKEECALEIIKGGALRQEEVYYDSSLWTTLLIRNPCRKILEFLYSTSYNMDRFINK
Description: Inhibition of N-terminal His6-tagged full length human 11betaHSD1 expressed in baculovirus infected cells using cortisone as substrate after 25 mins by HTRF assay

[13] = Clearance in po dosed Sprague-Dawley rat measured up to 24 hrs; conditions: in vivo
[14] = Clearance in po dosed Sprague-Dawley rat pre-dosed with ABT administered 2 hrs prior to ABT administration measured up to 24 hrs; conditions: in vivo

SMILES	logD at 0.5 h ([1]; octanol/buffer)	clearance [2] [mL/min/kg]	fraction unbound [3]	hepatocyte CLint [4] [µL/min/1e6 cells]	bioavailability [5] [%]	further results
CCCOc1nc(N2CCC[C@@H](CC(=O)O)C2)ccc1C(=O)NC1CCCCC1	2.8	9	0.006	9	> 100	
CCCSc1ncccc1C(=O)N[C@@H]1[C@@H]2CC3C[C@H]1C[C@@](O)(C3)C2	2.3	110	> 0.5	49	11	
CCCSc1ncccc1C(=O)N(C)C1CCOCC1	1.6	46	0.49	90	0	
CCCSc1nc(N2CCCCC2C(=O)O)ccc1C(=O)NC1CCCCC1 (stereo not given)	1.4	12	0.019	10	> 100	
CCCN(C)c1nc(N2CCC[C@@H](CC(=O)O)C2)ccc1C(=O)NC1CCCCC1		15	0.018	12	39	logD at 0.5 h ([1]; octanol/water): 2.3
CCCSc1ncccc1C(=O)NC1CCCCC1	3.2		0.13		0	Cmax [6]: 514 ng/mL; solubility at 24 h [7]: 82 µM (≈ 22.8 µg/mL); Cmax [8]: 39 ng/mL; AUC(0-t) at 24 h [9]: 2510 ng·h/mL; AUC(0-t) at 24 h [10]: 80 ng·h/mL; Papp [11]: 27 ×10⁻⁶ cm/s
CCCSc1ncccc1C(=O)N(C)[C@H]1[C@@H]2CC3C[C@H]1C[C@@](O)(C3)C2			0.41	140		logD at 0.5 h ([1]; octanol/water): 2.5
CCCSc1nc(N2CCC(CC(=O)O)CC2)ccc1C(=O)NC1CCCCC1	2	4	0.032	6	90	
CCCSc1nc(NC[C@H]2CC[C@H](C(=O)O)CC2)ccc1C(=O)NC1CCCCC1	2.6	8	0.015	8	81	
CCCSc1nc(N[C@H]2CC[C@H](C(=O)O)CC2)ccc1C(=O)NC1CCCCC1		6	0.029	< 2	> 100	
CCCSc1ncccc1C(=O)N(C)[C@@H]1[C@@H]2CC3C[C@H]1C[C@@](O)(C3)C2		24	0.2	140	0	logD at 0.5 h ([1]; octanol/water): 2.5
CCCNc1nc(N2CCC[C@@H](CC(=O)O)C2)ccc1C(=O)NC1CCCCC1	2.3	4	0.029	7	72	
CCCSc1ncccc1C(=O)N[C@H]1CC[C@@H](C(=O)O)CC1	< 0.5	2.5	0.41	< 2	81	IC50 [12]: > 30 µM
CCCSc1nc(N2CCC[C@H](CC(=O)O)C2)ccc1C(=O)NC1CCCCC1	2.2	1	0.006	8	79	
CCCSc1ncccc1C(=O)NC1CCC(F)(F)CC1		30	0.29	130	0	
CCCSc1ncccc1C(=O)N(C)C1CCCCC1	3.4	48	0.1	> 350	0	
CCCSc1nc(N2CCC(C(=O)O)CC2)ccc1C(=O)NC1CCCCC1		8	0.03	< 2	> 100	logD at 0.5 h ([1]; octanol/water): 1.6
CCCSc1nc(N2CCCC(C(=O)O)C2)ccc1C(=O)NC1CCCCC1 (stereo not given)	1.7	4	0.023	6	45	
O=S(=O)(Cc1c(F)cccc1F)N1CCN(c2ncccc2C(F)(F)F)CC1	3.9		0.005	272	0	solubility at 24 h [7]: 2 µM (≈ 0.843 µg/mL); CL/F at 24 h [13]: 20 mL/min/kg; CL/F [14]: 14 mL/min/kg; Papp [11]: 10 ×10⁻⁶ cm/s
CCCSc1nc(Oc2ccc(CC(=O)O)cc2)ccc1C(=O)NC1CCCCC1	1.8		0.003	< 2		
CCCSc1nc(Oc2cccc(CCC(=O)O)c2)ccc1C(=O)NC1CCCCC1	1.7		0.006	15		
CCCSc1ncccc1C(=O)N1CCCC1c1ccncc1 (stereo not given)	2	39	0.13	120	0	
CCCCc1nc(N2CCC[C@@H](CC(=O)O)C2)ccc1C(=O)NC1CCCCC1	1.6	4	0.06	< 2	57	
